One test concerns MKN45 cells. In words: MKN45 cell proliferation assay (Cell-Titer-Glo, 120 h). Type of test: cell-based. Conditions: for EC50: Homo sapiens, MKN-45, 120 h, Cell-Titer-Glo, read-out: MKN45 Cell Prolif. 120 hr (EC50); for MKN45 Cell Prolif. 120 hr (Ymin-Obs): minimal percent of DMSO control observed in the concentrations tested. In a few lines:
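Cells seeded at 400/well onto pre-printed 10-point half-log dilutions (top 1 or 10 uM, 0.1% DMSO final), in triplicate, and grown 120 h at 37 C. Viability by Cell-Titer-Glo luminescence, blank-subtracted and normalised to DMSO; EC50 from four-parameter logistic fit, with observed minimal % of control recorded as Ymin-obs.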

The next test has as its target T1, WEE1 (Homo sapiens, UniProt P30291+Q96SW2).
T1 construct: C-terminal ePL-tagged (DiscoverX, Fremont, CA) full-length WEE1 expression construct; expressed in transfected cells; host or cells: LentiX-HEK293T (Invitrogen), lentiviral transduction; co-expressing GSPT1-GN (G576N, lacking the first 158 amino acids)
The test can be described thus: WEE1-ePL degradation assay (LentiX-WEE1-ePL-GSPT1-ND cells, InCELL Hunter luminescence, 4 h). Format: cell-based. The note with it: 293T-LentiX WEE1-ePL cells; for DC50: read-out: 293T-LentiX WEE1-ePL Degradation 4 hr (EC50). The essentials: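 Degradation EC50 was fitted by a four-parameter logistic model, with the upper limit taken from DMSO wells. Luminescence was read with InCELL Hunter reagent after 30 min at room temperature, following a 4 h, 37° C exposure of 2500 cells/well. Cells were LentiX-HEK293T carrying ePL-tagged full-length WEE1, dosed in 10 points (3-fold) from 1 or 10 uM.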

Where [1] appears, read: lower limit of the fit (Ymin=0 luciferase inhibitor, Ymax DMSO control).
[2] abbreviates: lower limit of the fit (0 = luciferase inhibitor, Ymax = DMSO control).

The text below walks through data of patent publication US20240067632A1, “WEE1 Degrading Compounds and Uses Thereof” (Bristol-Myers Squibb Company, priority 2022, published 2024).

Read-outs that look alike come from different tables or passages of the source.

On to `COC[C@@H]1CC[C@@H](c2ccc3cc(CN4CC[C@H](Oc5ccc6c(c5)CN(C5CCC(=O)NC5=O)C6=O)C4)ccc3n2)C1` (stereo partly drawn) [3-(5-{[(3S)-1-({2-[(1R,3R)-3-(methoxymethyl)cyclopentyl]quinolin-6-yl}methyl)pyrrolidin-3-yl]oxy}-1-oxo-2,3-dihydro-1H-isoindol-2-yl)piperidine-2,6-dione], for which, in the test on MKN45 cells, the concentration for a half-maximal effect (EC50) is 3.05 nM and the “MKN45 Cell Prolif. 120 hr (Ymin-Obs)” value was 8.79. The “293T-LentiX WEE1-ePL Degradation 4 hr (Ymin)” value at WEE1 (setting [1]) was determined as 34.2. The DC50 at WEE1 turned out to be 3.01 nM.

On to `O=C1CCC(N2Cc3cc(O[C@H]4CCN(Cc5ccc6nc([C@@H]7CCC[C@@H](O)C7)ccc6c5)C4)ccc3C2=O)C(=O)N1` (stereo partly drawn) [3-(5-{[(3S)-1-({2-[(1R,3R)-3-hydroxycyclohexyl]quinolin-6-yl}methyl)pyrrolidin-3-yl]oxy}-1-oxo-2,3-dihydro-1H-isoindol-2-yl)piperidine-2,6-dione], for which, in the test with MKN45 cells (growth inhibition), the EC50 was 1.18 nM. For the same compound, in the test with MKN45 cells, the “MKN45 Cell Prolif. 120 hr (Ymin-Obs)” value is given as 8.405. Further, on WEE1 (setting [2]), the “293T-LentiX WEE1-ePL Degradation 4 hr (Ymin)” value is on record as 31. Moreover, the DC50 at WEE1 was 3.18 nM.

`O=C1CCC(N2Cc3cc(O[C@H]4CCN(Cc5ccc6nc([C@@H]7CC[C@@H](O)C7)ccc6c5)C4)ccc3C2=O)C(=O)N1` (stereo partly drawn) [3-(5-{[(3S)-1-({2-[(1R,3R)-3-hydroxycyclopentyl]quinolin-6-yl}methyl)pyrrolidin-3-yl]oxy}-1-oxo-2,3-dihydro-1H-isoindol-2-yl)piperidine-2,6-dione]: in the test with MKN45 cells (growth inhibition), the EC50 was determined as 1.38 nM. Besides, in the test on MKN45 cells, the “MKN45 Cell Prolif. 120 hr (Ymin-Obs)” value was 8.2675. Further, the “293T-LentiX WEE1-ePL Degradation 4 hr (Ymin)” value on WEE1 (setting [2]) is reported as 31.5. Also, the DC50 at WEE1 worked out at 2.6 nM.

With `CO[C@@H]1CCC[C@@H](c2ccc3cc(CN4CC[C@H](Oc5ccc6c(c5)CN(C5CCC(=O)NC5=O)C6=O)C4)ccc3n2)C1` (stereo partly drawn) [3-(5-{[(3S)-1-({2-[(1R,3R)-3-methoxycyclohexyl]quinolin-6-yl}methyl)pyrrolidin-3-yl]oxy}-1-oxo-2,3-dihydro-1H-isoindol-2-yl)piperidine-2,6-dione], the concentration giving a half-maximal response (EC50) in the test on MKN45 cells (growth inhibition) was 0.93 nM. Also, the “MKN45 Cell Prolif. 120 hr (Ymin-Obs)” value in the test with MKN45 cells stood at 7.97. The “293T-LentiX WEE1-ePL Degradation 4 hr (Ymin)” value on WEE1 (setting [2]) is 29. The DC50 on WEE1 worked out at 2.83 nM.

Turning to `CO[C@@H]1CC[C@@H](c2ccc3cc(CN4CC[C@H](Oc5ccc6c(c5)CN(C5CCC(=O)NC5=O)C6=O)C4)ccc3n2)C1` (stereo partly drawn) [3-(5-{[(3S)-1-({2-[(1R,3R)-3-methoxycyclopentyl]quinolin-6-yl}methyl)pyrrolidin-3-yl]oxy}-1-oxo-2,3-dihydro-1H-isoindol-2-yl)piperidine-2,6-dione], the 50% effective concentration (EC50) in the test with MKN45 cells (growth inhibition) was found to be 1.95 nM. For the same compound, in the test on MKN45 cells, the “MKN45 Cell Prolif. 120 hr (Ymin-Obs)” value is given as 7.45. Besides, on WEE1 (setting [2]), the “293T-LentiX WEE1-ePL Degradation 4 hr (Ymin)” value is listed as 30. Also, at WEE1, the DC50 amounted to 4.74 nM.

For `COC[C@H]1CC[C@@H](c2ccc3cc(CN4CC[C@H](Oc5ccc6c(c5)CN(C5CCC(=O)NC5=O)C6=O)C4)ccc3n2)C1` (stereo partly drawn) [3-(5-{[(3S)-1-({2-[(1R,3S)-3-(methoxymethyl)cyclopentyl]quinolin-6-yl}methyl)pyrrolidin-3-yl]oxy}-1-oxo-2,3-dihydro-1H-isoindol-2-yl)piperidine-2,6-dione], in the test with MKN45 cells, the EC50 is 3.09 nM and the “MKN45 Cell Prolif. 120 hr (Ymin-Obs)” value is on record as 8.888. In addition, the “293T-LentiX WEE1-ePL Degradation 4 hr (Ymin)” value at WEE1 (setting [1]) came to 34.11. The DC50 at WEE1 came to 3.12 nM.

Consider `O=C1CCC(N2Cc3cc(O[C@H]4CCN(Cc5ccc6nc([C@@H]7CC[C@H](O)C7)ccc6c5)C4)ccc3C2=O)C(=O)N1` (stereo partly drawn) [3-(5-{[(3S)-1-({2-[(1R,3S)-3-hydroxycyclopentyl]quinolin-6-yl}methyl)pyrrolidin-3-yl]oxy}-1-oxo-2,3-dihydro-1H-isoindol-2-yl)piperidine-2,6-dione], for which, in the test with MKN45 cells (growth inhibition), the EC50 is 0.655 nM. The “MKN45 Cell Prolif. 120 hr (Ymin-Obs)” value in the test with MKN45 cells is 7.585. Besides, at WEE1 (setting [2]), the “293T-LentiX WEE1-ePL Degradation 4 hr (Ymin)” value was 32. Further, at WEE1, the DC50 was determined as 3.33 nM.

Broadly, the EC50 is the concentration at which the effect is half-maximal.
